In ChEMBL document CHEMBL1201862, “PubChem BioAssay data set” (2004):
One block for each compound: values may come before it. The source made the active and inactive calls.

Experiments:
[1] = biological target: Procathepsin L (Homo sapiens, UniProt P07711); assay: cathepsin L inhibitors, dose response, counter-screen for M1/M17 aminopeptidase inhibitor project, biochemical, QFRET, 1536-well (AID 2214)
[2] = biological target: T1, Leucine aminopeptidase (Plasmodium falciparum 3D7, UniProt Q8IL11); assay: P. falciparum M17LAP inhibitors, primary screen, biochemical, fluorogenic H-Leu-NHMec substrate, 1536-well (AID 1619); type: functional
T1 sequence (Q8IL11 whole entry): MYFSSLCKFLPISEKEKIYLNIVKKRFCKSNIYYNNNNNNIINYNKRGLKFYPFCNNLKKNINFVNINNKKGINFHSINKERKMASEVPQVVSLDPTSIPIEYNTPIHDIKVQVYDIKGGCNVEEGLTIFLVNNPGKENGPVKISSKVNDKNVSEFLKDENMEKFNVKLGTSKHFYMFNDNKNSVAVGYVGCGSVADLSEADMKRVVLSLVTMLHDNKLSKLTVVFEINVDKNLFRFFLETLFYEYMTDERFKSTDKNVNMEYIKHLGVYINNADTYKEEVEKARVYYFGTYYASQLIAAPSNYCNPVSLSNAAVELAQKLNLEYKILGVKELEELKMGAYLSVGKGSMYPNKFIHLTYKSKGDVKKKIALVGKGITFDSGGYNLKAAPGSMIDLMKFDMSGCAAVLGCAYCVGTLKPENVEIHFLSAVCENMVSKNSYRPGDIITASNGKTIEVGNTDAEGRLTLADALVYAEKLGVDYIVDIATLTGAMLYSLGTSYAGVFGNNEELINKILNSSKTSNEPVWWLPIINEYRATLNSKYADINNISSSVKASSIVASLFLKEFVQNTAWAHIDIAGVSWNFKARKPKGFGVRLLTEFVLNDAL

[3] = biological target: T2, Protein skinhead-1 (Caenorhabditis elegans, UniProt P34707); type: functional
T2 sequence (P34707 whole entry): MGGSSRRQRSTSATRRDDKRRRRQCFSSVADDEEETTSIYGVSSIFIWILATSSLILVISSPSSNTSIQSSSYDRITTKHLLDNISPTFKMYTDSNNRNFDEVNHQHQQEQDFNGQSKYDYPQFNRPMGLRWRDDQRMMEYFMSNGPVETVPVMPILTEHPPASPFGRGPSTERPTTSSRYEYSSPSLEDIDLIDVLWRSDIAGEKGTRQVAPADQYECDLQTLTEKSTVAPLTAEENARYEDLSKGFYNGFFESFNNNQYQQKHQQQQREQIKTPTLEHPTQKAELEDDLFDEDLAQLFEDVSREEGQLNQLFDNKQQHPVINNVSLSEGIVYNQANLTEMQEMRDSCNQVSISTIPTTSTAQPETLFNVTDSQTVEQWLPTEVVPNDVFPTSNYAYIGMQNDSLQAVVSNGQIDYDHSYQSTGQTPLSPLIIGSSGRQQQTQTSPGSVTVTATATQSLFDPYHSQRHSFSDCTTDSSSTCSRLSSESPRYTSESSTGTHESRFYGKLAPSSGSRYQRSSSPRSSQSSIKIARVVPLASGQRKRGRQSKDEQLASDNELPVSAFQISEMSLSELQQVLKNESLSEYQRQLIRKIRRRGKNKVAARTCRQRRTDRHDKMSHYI

[4] = biological target: T3, Aspartyl aminopeptidase (Plasmodium falciparum 3D7, UniProt Q8I2J3); assay: Counterscreen for inhibitors of M1 and M17 aminopeptidases: QFRET-based biochemical high throughput dose response assay for inhibitors of the Plasmodium falciparum M18 Aspartyl Aminopeptidase (PFM18AAP). [Related PubChem assays: 1619 (Screening assay (M17LAP inhibitors).), 1445 (Screening assay (M1AAP inhibitors).)]
T3 sequence (Q8I2J3 whole entry): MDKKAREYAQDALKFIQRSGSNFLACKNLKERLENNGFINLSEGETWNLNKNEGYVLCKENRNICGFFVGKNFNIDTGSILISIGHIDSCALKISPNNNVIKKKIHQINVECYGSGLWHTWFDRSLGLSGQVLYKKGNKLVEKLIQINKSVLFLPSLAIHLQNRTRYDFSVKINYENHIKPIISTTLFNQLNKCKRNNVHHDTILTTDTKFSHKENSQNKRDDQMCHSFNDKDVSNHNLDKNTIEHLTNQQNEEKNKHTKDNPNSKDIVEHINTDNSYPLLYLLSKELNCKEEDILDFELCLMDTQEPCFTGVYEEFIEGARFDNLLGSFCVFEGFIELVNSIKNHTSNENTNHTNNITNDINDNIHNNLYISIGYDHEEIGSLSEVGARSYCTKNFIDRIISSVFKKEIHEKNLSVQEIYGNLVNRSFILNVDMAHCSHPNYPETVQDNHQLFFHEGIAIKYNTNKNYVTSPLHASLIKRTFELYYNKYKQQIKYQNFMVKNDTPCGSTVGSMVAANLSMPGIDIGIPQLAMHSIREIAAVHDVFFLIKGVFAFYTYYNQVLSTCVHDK

[5] = biological target: Dual specificity protein phosphatase 6 (Rattus norvegicus, UniProt Q64346); assay: MKP-3 phosphatase inhibitors, primary screen, biochemical, rat enzyme, in vitro (AID 425)
Dual specificity protein phosphatase 6, sequence (Q64346 whole entry): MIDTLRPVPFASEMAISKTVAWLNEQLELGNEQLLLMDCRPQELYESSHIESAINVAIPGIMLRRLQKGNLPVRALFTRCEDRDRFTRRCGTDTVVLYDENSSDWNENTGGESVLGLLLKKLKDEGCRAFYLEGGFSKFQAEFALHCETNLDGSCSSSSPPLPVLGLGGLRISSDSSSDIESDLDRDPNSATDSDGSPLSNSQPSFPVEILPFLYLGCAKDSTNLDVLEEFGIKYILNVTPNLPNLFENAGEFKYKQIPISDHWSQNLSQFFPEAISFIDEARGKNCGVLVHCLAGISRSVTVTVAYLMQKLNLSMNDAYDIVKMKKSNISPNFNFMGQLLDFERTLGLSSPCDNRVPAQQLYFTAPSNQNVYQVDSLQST

[6] = biological target: Prothrombin (Homo sapiens, UniProt P00734); assay: Thrombin 1536 HTS Dose Response Confirmation. [Related pubchem assays: 1046 (Thrombin 1536 HTS; hits were confirmed in this assay)]; type: functional
[7] = biological target: T4, Bcl-2-related protein A1 (Mus musculus, UniProt Q07440); assay: Bfl-1 inhibitors blocking BH3 peptide binding, confirmation, biochemical, TR-FRET, mouse Bfl-1 (AID 621);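 also: TR-FRET binding of GST-Bfl-1 to FITC-labelled Bid peptide via terbium antibody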
T4 sequence (Q07440 whole entry): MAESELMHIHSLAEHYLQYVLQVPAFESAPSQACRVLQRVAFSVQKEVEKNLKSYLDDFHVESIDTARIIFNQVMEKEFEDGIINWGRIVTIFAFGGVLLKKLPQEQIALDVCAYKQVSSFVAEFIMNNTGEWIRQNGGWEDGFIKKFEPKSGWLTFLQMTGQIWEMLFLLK

[8] = biological target: T4, Bcl-2-related protein A1; assay: Bfl-1 binding inhibitors, SAR follow-up, biochemical, fluorescence polarization (AID 1070)
[9] = biological target: Cytochrome P450 2C19 (Homo sapiens, UniProt P33261); assay: qHTS Assay for Inhibitors and Substrates of Cytochrome P450 2C19. [Related pubchem assays: 410 ]; type: ADME; settings: read-out: Potency
Cytochrome P450 2C19, sequence (P33261 whole entry): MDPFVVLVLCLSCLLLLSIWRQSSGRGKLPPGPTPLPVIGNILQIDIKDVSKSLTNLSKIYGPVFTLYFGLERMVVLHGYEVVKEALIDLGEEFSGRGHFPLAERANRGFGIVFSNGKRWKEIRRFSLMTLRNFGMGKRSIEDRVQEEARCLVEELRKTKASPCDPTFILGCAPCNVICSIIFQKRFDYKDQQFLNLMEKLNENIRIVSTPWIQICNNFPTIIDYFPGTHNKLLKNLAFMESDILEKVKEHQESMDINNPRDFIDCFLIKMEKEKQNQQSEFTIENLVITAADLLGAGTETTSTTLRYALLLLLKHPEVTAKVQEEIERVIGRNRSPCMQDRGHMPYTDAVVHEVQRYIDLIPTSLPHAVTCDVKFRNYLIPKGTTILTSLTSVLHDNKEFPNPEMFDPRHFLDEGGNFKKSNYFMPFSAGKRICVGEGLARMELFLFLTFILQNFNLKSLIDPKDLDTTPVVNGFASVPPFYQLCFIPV

[10] = biological target: T5, Zinc finger protein mex-5 (Caenorhabditis elegans, UniProt Q9XUB2); assay: MEX-5/TCR-2 RNA interaction inhibitors, dose response, biochemical, C. elegans, fluorescence polarization (AID 1960)
T5 sequence (Q9XUB2 whole entry): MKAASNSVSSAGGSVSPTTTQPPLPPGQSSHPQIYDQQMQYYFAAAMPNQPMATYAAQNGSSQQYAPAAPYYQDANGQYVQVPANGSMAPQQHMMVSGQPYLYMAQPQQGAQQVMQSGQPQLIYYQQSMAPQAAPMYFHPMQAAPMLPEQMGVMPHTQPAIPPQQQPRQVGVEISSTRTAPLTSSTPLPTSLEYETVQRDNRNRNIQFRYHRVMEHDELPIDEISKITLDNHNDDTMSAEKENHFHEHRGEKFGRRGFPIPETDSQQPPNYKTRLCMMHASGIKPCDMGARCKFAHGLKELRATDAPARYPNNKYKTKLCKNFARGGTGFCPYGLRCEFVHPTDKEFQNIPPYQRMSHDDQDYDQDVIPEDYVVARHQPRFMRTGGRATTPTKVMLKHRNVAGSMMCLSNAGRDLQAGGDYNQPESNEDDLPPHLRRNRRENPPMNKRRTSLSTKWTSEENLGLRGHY

[11] = biological target: T6, RNA-binding protein pos-1 (Caenorhabditis elegans, UniProt G5EF15); assay: inhibitors of POS-1/mex-3 RNA binding, dose response, biochemical, fluorescence polarization (AID 1964);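 also: purified POS-1 fused to maltose binding protein made in E. coli; potency of compounds blocking POS-1 binding to fluorescent RNA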
T6 sequence (G5EF15 whole entry): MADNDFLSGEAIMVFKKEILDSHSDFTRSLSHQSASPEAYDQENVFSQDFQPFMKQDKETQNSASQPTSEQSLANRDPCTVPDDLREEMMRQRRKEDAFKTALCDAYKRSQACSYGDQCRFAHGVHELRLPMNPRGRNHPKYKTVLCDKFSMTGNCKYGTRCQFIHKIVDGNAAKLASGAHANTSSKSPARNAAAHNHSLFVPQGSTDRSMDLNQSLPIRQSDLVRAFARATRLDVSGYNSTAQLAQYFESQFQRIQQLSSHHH

[12] = Escherichia coli growth inhibition, dose response, counter-screen for MEX-5/POS-1 RNA-binding inhibitor project, luminescence, NEB5alpha (AID 1959); type: functional

Procathepsin L, sequence (P07711 whole entry): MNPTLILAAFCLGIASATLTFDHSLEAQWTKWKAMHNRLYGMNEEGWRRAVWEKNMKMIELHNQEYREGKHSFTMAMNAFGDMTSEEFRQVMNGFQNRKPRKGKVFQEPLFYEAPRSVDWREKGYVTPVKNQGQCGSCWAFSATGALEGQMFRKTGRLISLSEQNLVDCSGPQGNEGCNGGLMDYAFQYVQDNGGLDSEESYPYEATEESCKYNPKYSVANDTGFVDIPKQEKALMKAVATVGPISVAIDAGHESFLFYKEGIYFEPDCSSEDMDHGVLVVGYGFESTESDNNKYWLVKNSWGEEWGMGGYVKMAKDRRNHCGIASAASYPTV

- IC50 [1]: > 59.6 µM (not active)
- IC50 [2]: 2.01 µM (active)
- IC50 [3]: > 100 µM (inactive)
- IC50 [4]: > 73.5 µM (not active)
SMILES: O=C(CSc1nc(O)cc(O)n1)Nc1ccc2c(c1)CCC2

- IC50 [5]: > 100 µM (not active)
SMILES: CCCCOc1ccccc1P(=O)(O)CP(=O)(c1ccccc1)c1ccccc1

- IC50 [6]: > 50 µM (not active)
SMILES: COc1ccc(NC(=O)Cc2ccccc2F)cn1

- IC50 [7]: > 100 µM (not active)
- IC50 [8]: > 100 µM (not active)
SMILES: COc1ncccc1-c1nnn(-c2ccc(Cl)nc2)n1

- AC50 [9]: 10 µM (inconclusive)
SMILES: C[C@@]12CCC(=O)C=C1CC[C@H]1[C@H]3CC[C@](O)(C(=O)CO)[C@]3(C)CC[C@@H]12

- EC50 [10]: > 300 µM (not active)
- EC50 [11]: > 300 µM (not active)
SMILES: NC(=O)c1ccccc1N/C=C/C(=O)c1ccc(F)cc1
- EC50 [12]: 23 µM (active)
